Laboratory results published in PubChem BioAssay AID248 (DTP/NCI, 2004).
Values joined by “and” are separate entries in the source; they are usually repeats but may differ in a detail not shown here. Equal entries are not always repeated. Toxic doses and inconclusive results are not listed. Cut-off read from the data, not from the text of the source: active = T/C of 150% or more; inactive = T/C below 125%.

Test system: L1210 leukemia ip in BDF1 mice, survival T/C
Experiment: NCI In Vivo Anticancer Drug Screen. Data for tumor model L1210 Leukemia (intraperitoneal) in B6D2F1 (BDF1) mice
Details: endpoint: mean survival time, higher = longer survival
Summary of the method: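 Tumor cells were implanted, animals were treated, and survival was followed. The result divides the treated measurement by the vehicle-control measurement.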

[1] = dose: 100.0 mg/kg/injection, schedule: Q01DX009 (ip), vehicle: Klucel (hydroxypropylcellulose) (HPC)
[2] = dose: 200.0 mg/kg/injection, schedule: Q01DX009 (ip), vehicle: Klucel (hydroxypropylcellulose) (HPC)
[3] = dose: 400.0 mg/kg/injection, schedule: Q01DX009 (ip), vehicle: Klucel (hydroxypropylcellulose) (HPC)
[4] = dose: 100.0 mg/kg/injection, schedule: Q01DX001 (ip), vehicle: carboxymethylcellulose (CMC)
[5] = dose: 200.0 mg/kg/injection, schedule: Q01DX001 (ip), vehicle: carboxymethylcellulose (CMC)
[6] = dose: 400.0 mg/kg/injection, schedule: Q01DX001 (ip), vehicle: carboxymethylcellulose (CMC)
[7] = dose: 100.0 mg/kg/injection, schedule: Q04DX002 (ip), vehicle: Klucel (hydroxypropylcellulose) (HPC)
[8] = dose: 200.0 mg/kg/injection, schedule: Q04DX002 (ip), vehicle: Klucel (hydroxypropylcellulose) (HPC)
[9] = dose: 400.0 mg/kg/injection, schedule: Q04DX002 (ip), vehicle: Klucel (hydroxypropylcellulose) (HPC)
[10] = dose: 100.0 mg/kg/injection, schedule: Q04DX003 (ip), vehicle: Klucel (hydroxypropylcellulose) (HPC)
[11] = dose: 200.0 mg/kg/injection, schedule: Q04DX003 (ip), vehicle: Klucel (hydroxypropylcellulose) (HPC)
[12] = dose: 100.0 mg/kg/injection, schedule: Q01DX009 (ip), vehicle: saline with Tween-80
[13] = dose: 100.0 mg/kg/injection, schedule: Q04DX003 (ip), vehicle: saline with Tween-80
[14] = dose: 200.0 mg/kg/injection, schedule: Q01DX009 (ip), vehicle: saline with Tween-80
[15] = dose: 200.0 mg/kg/injection, schedule: Q04DX003 (ip), vehicle: saline with Tween-80
[16] = dose: 400.0 mg/kg/injection, schedule: Q01DX009 (ip), vehicle: saline with Tween-80
[17] = dose: 400.0 mg/kg/injection, schedule: Q04DX003 (ip), vehicle: saline with Tween-80
[18] = dose: 400.0 mg/kg/injection, schedule: Q04DX003 (ip), vehicle: Klucel (hydroxypropylcellulose) (HPC)

Measured: T/C

CC1OC2CC(=O)OC2C2=C1C(=O)c1c(O)c3c(c(O)c1C2=O)C1CC(O)C3(O)C(C)O1 (centres undefined)
inactive: dose: 0.01 mg/kg/injection, schedule: Q01DX Z (ip), vehicle: saline 112 % of control | dose: 0.03 mg/kg/injection, schedule: Q01DX Z (ip), vehicle: saline 98 % of control | dose: 0.05 mg/kg/injection, schedule: Q01DX Z (ip), vehicle: saline 90 % of control | dose: 0.1 mg/kg/injection, schedule: Q01DX Z (ip), vehicle: saline 95 % of control | dose: 0.2 mg/kg/injection, schedule: Q01DX Z (ip), vehicle: saline 95 % of control and 100 % of control | dose: 0.4 mg/kg/injection, schedule: Q01DX Z (ip), vehicle: saline 90 % of control | dose: 0.8 mg/kg/injection, schedule: Q01DX Z (ip), vehicle: saline 89 % of control | dose: 1.6 mg/kg/injection, schedule: Q01DX Z (ip), vehicle: saline 94 % of control | dose: 3.2 mg/kg/injection, schedule: Q01DX Z (ip), vehicle: saline 86 % of control | dose: 5.0 mg/kg/injection, schedule: Q01DX001 (ip), vehicle: saline 102 % of control | dose: 6.4 mg/kg/injection, schedule: Q01DX Z (ip), vehicle: saline 92 % of control | dose: 10.0 mg/kg/injection, schedule: Q01DX001 (ip), vehicle: saline 102 % of control | dose: 12.0 mg/kg/injection, schedule: Q01DX Z (ip), vehicle: saline 92 % of control | dose: 12.8 mg/kg/injection, schedule: Q01DX Z (ip), vehicle: saline 87 % of control | dose: 20.0 mg/kg/injection, schedule: Q01DX001 (ip), vehicle: saline 97 % of control | dose: 40.0 mg/kg/injection, schedule: Q01DX001 (ip), vehicle: saline 97 % of control

CCOC(=O)C1CCC(=O)O1 (centres undefined)
inactive: dose: 100.0 mg/kg/injection, schedule: Q04DX002 (ip), vehicle: saline 104 % of control | dose: 200.0 mg/kg/injection, schedule: Q04DX002 (ip), vehicle: saline 101 % of control | dose: 400.0 mg/kg/injection, schedule: Q04DX002 (ip), vehicle: saline 97 % of control

CC(=O)OCC1OC(S[As](C)SC2OC(COC(C)=O)C(OC(C)=O)C(OC(C)=O)C2OC(C)=O)C(OC(C)=O)C(OC(C)=O)C1OC(C)=O (centres undefined)
inactive: dose: 6.25 mg/kg/injection, schedule: Q01DX009 (ip), vehicle: saline with Tween-80 101 % of control | dose: 12.5 mg/kg/injection, schedule: Q01DX009 (ip), vehicle: saline with Tween-80 116 % of control | dose: 25.0 mg/kg/injection, schedule: Q01DX009 (ip), vehicle: saline with Tween-80 116 % of control

CCCCCCCSc1nsc(SCCCCCCC)c1C#N
inactive: [1] 104 % of control | [2] 114 % of control | [3] 101 % of control

O=C(O)c1ccccc1N=Cc1ccc(N(CCCl)CCCl)cc1
inactive: dose: 50.0 mg/kg/injection, schedule: Q01DX001 (ip), vehicle: carboxymethylcellulose (CMC) 103 % of control | [4] 122 % of control | [5] 114 % of control | [6] 111 % of control

CC(=O)Oc1cccc([N+](=O)[O-])c1
inactive: [7] 107 % of control | [8] 100 % of control | [9] 92 % of control

CN(C)C1CCCCCCC1
inactive: dose: 75.0 mg/kg/injection, schedule: Q01DX001 (ip), vehicle: acetone 95 % of control

CCC1(O)CC2c3ccccc3CCN2CC1CC(C)C (centres undefined)
inactive: dose: 12.5 mg/kg/injection, schedule: Q01DX009 (ip), vehicle: Klucel (hydroxypropylcellulose) (HPC) 101 % of control | dose: 25.0 mg/kg/injection, schedule: Q01DX009 (ip), vehicle: Klucel (hydroxypropylcellulose) (HPC) 116 % of control | dose: 25.0 mg/kg/injection, schedule: Q04DX003 (ip), vehicle: Klucel (hydroxypropylcellulose) (HPC) 110 % of control | dose: 50.0 mg/kg/injection, schedule: Q01DX009 (ip), vehicle: Klucel (hydroxypropylcellulose) (HPC) 108 % of control | dose: 50.0 mg/kg/injection, schedule: Q04DX003 (ip), vehicle: Klucel (hydroxypropylcellulose) (HPC) 98 % of control | [1] 121 % of control | [10] 113 % of control | [11] 107 % of control

COc1ccc(CC(=O)N2CCc3cc(OC)c(OC)cc3C2O)cc1OC (centres undefined)
inactive: [12] 96 % of control | [13] 100 % of control | [14] 91 % of control | [15] 103 % of control | [16] 88 % of control | [17] 102 % of control

CCCCCCCCCCCCNC(=O)Nc1cccc(C)c1C
inactive: [1] 89 % of control | [10] 98 % of control | [2] 100 % of control | [11] 95 % of control | [3] 89 % of control | [18] 95 % of control

CCOC1=NC(C)(C)CC(C)O1 (centres undefined)
inactive: dose: 25.0 mg/kg/injection, schedule: Q04DX003 (ip), vehicle: saline with Tween-80 95 % of control | dose: 50.0 mg/kg/injection, schedule: Q04DX003 (ip), vehicle: saline with Tween-80 101 % of control | [13] 102 % of control

CCCCCCCCCCCCCCCCSc1ccc(Br)cc1
inactive: [13] 92 % of control | [15] 102 % of control | [17] 97 % of control

CSc1ccc(C(=O)c2ccc(SC)cc2)cc1
inactive: [1] 98 % of control | [2] 98 % of control | [3] 95 % of control

C/C(CCCCCCCCC#N)=N/NC(N)=O
inactive: dose: 100.0 mg/kg/injection, schedule: Q01DX001 (ip), vehicle: Klucel (hydroxypropylcellulose) (HPC) 103 % of control | dose: 200.0 mg/kg/injection, schedule: Q01DX001 (ip), vehicle: Klucel (hydroxypropylcellulose) (HPC) 106 % of control | dose: 400.0 mg/kg/injection, schedule: Q01DX001 (ip), vehicle: Klucel (hydroxypropylcellulose) (HPC) 105 % of control

Cc1cc(Cl)ccc1NC(=O)c1ccccc1
inactive: [1] 98 % of control | [10] 103 % of control | [2] 105 % of control | [11] 92 % of control | [3] 96 % of control | [18] 97 % of control

C=CC1(O)CC2CCC1C2 (centres undefined)
inactive: [12] 101 % of control | [14] 96 % of control

CC(=O)Nc1ccc(Cl)nc1
inactive: [1] 98 % of control | [10] 94 % of control | [2] 92 % of control | [11] 101 % of control | [3] 93 % of control | [18] 91 % of control

CN(C)CCC(O)Cc1ccccc1 (centres undefined)
inactive: dose: 100.0 mg/kg/injection, schedule: Q01DX009 (ip), vehicle: acetone 95 % of control | dose: 200.0 mg/kg/injection, schedule: Q01DX009 (ip), vehicle: acetone 101 % of control

C/C(=N\NC(=O)CCCCC(=O)N/N=C(\C)c1ccc(C)cc1)c1ccc(C)cc1
inactive: [1] 88 % of control | [2] 90 % of control | [3] 91 % of control

C=CS(=O)(=O)c1ccccc1Cl
inactive: [10] 104 % of control | [11] 98 % of control

O=C(Nc1ccccc1)OC1CCCCC1OC(=O)Nc1ccccc1 (centres undefined)
inactive: dose: 100.0 mg/kg/injection, schedule: Q04DX002 (ip), vehicle: saline with Tween-80 87 % of control | dose: 200.0 mg/kg/injection, schedule: Q04DX002 (ip), vehicle: saline with Tween-80 107 % of control | dose: 400.0 mg/kg/injection, schedule: Q04DX002 (ip), vehicle: saline with Tween-80 97 % of control

COc1cc([N+](=O)[O-])c(C)c(Br)c1N
inactive: [4] 100 % of control | [5] 100 % of control | [6] 96 % of control

NC(=O)Nc1nc(-c2ccccc2)cc(-c2ccccc2O)n1
inactive: [7] 91 % of control | [8] 91 % of control | [9] 102 % of control

COC(=O)C(OC(=O)n1ccnc1)(c1ccccc1)c1ccccc1
inactive: dose: 100.0 mg/kg/injection, schedule: Q04DX002 (ip), vehicle: gum acacia 112 % of control | dose: 200.0 mg/kg/injection, schedule: Q04DX002 (ip), vehicle: gum acacia 94 % of control | dose: 400.0 mg/kg/injection, schedule: Q04DX002 (ip), vehicle: gum acacia 97 % of control

O=C(C[n+]1ccccc1)N/N=C/c1ccc(O)c(O)c1
inactive: dose: 50.0 mg/kg/injection, schedule: Q01DX009 (ip), vehicle: saline with Tween-80 104 % of control | [12] 106 % of control | [13] 110 % of control | [14] 117 % of control | [15] 110 % of control

Cc1ccc(S(=O)(=O)N2CC(O)CC2C(=O)O)cc1 (centres undefined)
inactive: [12] 96 % of control | [13] 93 % of control and 100 % of control | [14] 101 % of control | [15] 95 % of control and 103 % of control | [16] 101 % of control | [17] 93 % of control and 96 % of control
